± gives the standard deviation of the averaged measurements.
Assay: TIMS collisional cross section (CCS, N2) of the lipid ion; higher = larger ion cross section
Settings: ionization mode: positive, one isomer drawn

Row | TIMS collisional cross section (sample type: Liver) [Å²] | TIMS collisional cross section (sample type: HeLa) [Å²] | TIMS collisional cross section (sample type: plasma) [Å²] | SMILES
1 | 313.6 | 312.9 | – | CCCCCCC/C=C\CCCCCCCC(=O)O[C@@H](COC(=O)CCCCCCC/C=C\CCCCCCCC)COC(=O)CCCCCCCCCCCCC [TG 14:0_17:1_18:1] (ion (formula + adduct): [C52H96O6+NH4] 1+)
2 | 315.3 | – | – | CCCCCCCC/C=C\CCCCCCCC(=O)OC[C@@H](COC(=O)CCCCCCCCCCCCC)OC(=O)CCCCCCC/C=C\CCCCCCCC [TG 14:0_18:1_18:1] (ion (formula + adduct): [C53H98O6+NH4] 1+)
3 | 312.9 | – | – | CCCCC/C=C\C/C=C\CCCCCCCC(=O)OC[C@@H](COC(=O)CCCCCCCCCCCCC)OC(=O)CCCCCCC/C=C\CCCCCCCC [TG 14:0_18:1_18:2] (ion (formula + adduct): [C53H96O6+NH4] 1+)
4 | 322.4 | 322.3 | – | CCCCCCCC/C=C\CCCCCCCCCC(=O)OC[C@@H](COC(=O)CCCCCCCCCCCCC)OC(=O)CCCCCCC/C=C\CCCCCCCC [TG 14:0_18:1_20:1] (ion (formula + adduct): [C55H102O6+NH4] 1+)
5 | 320.5 | 320 | – | CCCCC/C=C\C/C=C\CCCCCCCCCC(=O)OC[C@@H](COC(=O)CCCCCCCCCCCCC)OC(=O)CCCCCCC/C=C\CCCCCCCC [TG 14:0_18:1_20:2] (ion (formula + adduct): [C55H100O6+NH4] 1+)
6 | 308.7 | – | 309.2 | CCCCC/C=C\C/C=C\C/C=C\CCCCC(=O)OC[C@@H](COC(=O)CCCCCCCCCCCCC)OC(=O)CCCCCCC/C=C\C/C=C\CCCCC [TG 14:0_18:2_18:3] (ion (formula + adduct): [C53H92O6+NH4] 1+)
7 | 291.2 | 294.6 | – | CCCC/C=C\CCCCCCCC(=O)OC[C@H](COC(=O)CCCCCCC/C=C\CCCCCC)OC(=O)CCCCCCC/C=C\CCCC [TG 14:1_14:1_16:1] (ion (formula + adduct): [C47H84O6+NH4] 1+)
8 | 296.3 | – | – | CCCC/C=C\CCCCCCCC(=O)OC[C@H](COC(=O)CCCCCCC/C=C\C/C=C\CCCCC)OC(=O)CCCCCCC/C=C\CCCC [TG 14:1_14:1_18:2] (ion (formula + adduct): [C49H86O6+NH4] 1+)
9 | 300.3 | 300.7 | 300.5 | CCCC/C=C\CCCCCCCC(=O)OC[C@H](COC(=O)CCCCCCC/C=C\CCCCCC)OC(=O)CCCCCCCCCCCCCC [TG 14:1_15:0_16:1] (ion (formula + adduct): [C48H88O6+NH4] 1+)
10 | 296 | 298.2 | – | CCCC/C=C\CCCCCCCC(=O)OC[C@H](COC(=O)CCCCCCC/C=C\CCCCCC)OC(=O)CCCCCCC/C=C\CCCCC [TG 14:1_15:1_16:1] (ion (formula + adduct): [C48H86O6+NH4] 1+)
11 | 302.9 | 303.9 ± 0.85 | 303.9 ± 0.28 | CCCC/C=C\CCCCCCCC(=O)OC[C@H](COC(=O)CCCCCCC/C=C\CCCCCC)OC(=O)CCCCCCCCCCCCCCC [TG 14:1_16:0_16:1] (ion (formula + adduct): [C49H90O6+NH4] 1+)
12 | 301.9 | 301.5 | – | CCCC/C=C\CCCCCCCC(=O)OC[C@H](COC(=O)CCCCCCC/C=C\CCCCCC)OC(=O)CCCCCCC/C=C\CCCCCC [TG 14:1_16:1_16:1] (ion (formula + adduct): [C49H88O6+NH4] 1+)
13 | 305.4 | – | – | CCCC/C=C\CCCCCCCC(=O)OC[C@H](COC(=O)CCCCCCC/C=C\CCCCCCC)OC(=O)CCCCCCC/C=C\CCCCCC [TG 14:1_16:1_17:1] (ion (formula + adduct): [C50H90O6+NH4] 1+)
14 | – | 309.6 | – | CCCC/C=C\CCCCCCCC(=O)OC[C@H](COC(=O)CCCCCCCCCCCCCCCCC)OC(=O)CCCCCCC/C=C\CCCCCC [TG 14:1_16:1_18:0] (ion (formula + adduct): [C51H94O6+NH4] 1+)
15 | 307.7 | 307.85 ± 1.2 | 307 | CCCC/C=C\CCCCCCCC(=O)OC[C@H](COC(=O)CCCCCCC/C=C\CCCCCCCC)OC(=O)CCCCCCC/C=C\CCCCCC [TG 14:1_16:1_18:1] (ion (formula + adduct): [C51H92O6+NH4] 1+)
16 | 304.7 | 306.1 | 304.5 | CCCC/C=C\CCCCCCCC(=O)OC[C@H](COC(=O)CCCCCCC/C=C\C/C=C\CCCCC)OC(=O)CCCCCCC/C=C\CCCCCC [TG 14:1_16:1_18:2] (ion (formula + adduct): [C51H90O6+NH4] 1+)
17 | – | – | 308.6 | CCCC/C=C\CCCCCCCC(=O)OC[C@H](COC(=O)CCCCCCC/C=C\C/C=C\CCCCC)OC(=O)CCCCCCC/C=C\CCCCCCC [TG 14:1_17:1_18:2] (ion (formula + adduct): [C52H92O6+NH4] 1+)
18 | – | 312.9 | 312.8 ± 0.14 | CCCCCC/C=C\CCCCCCCC(=O)O[C@@H](COC(=O)CCCCCCC/C=C\CCCCCCCC)COC(=O)CCCCCCCCCCCCCC [TG 15:0_16:1_18:1] (ion (formula + adduct): [C52H96O6+NH4] 1+)
19 | 310.7 ± 0.99 | – | 310.4 | CCCCC/C=C\C/C=C\CCCCCCCC(=O)OC[C@@H](COC(=O)CCCCCCCCCCCCCC)OC(=O)CCCCCCC/C=C\CCCCCC [TG 15:0_16:1_18:2] (ion (formula + adduct): [C52H94O6+NH4] 1+)

More lines, now with the values behind:

Row | SMILES | TIMS collisional cross section (sample type: Liver) [Å²] | TIMS collisional cross section (sample type: HeLa) [Å²] | TIMS collisional cross section (sample type: plasma) [Å²]
20 | CCCCCCCC/C=C\CCCCCCCC(=O)OC[C@@H](COC(=O)CCCCCCCCCCCCC)OC(=O)CCCCCCCCCCCCCCCC [TG 14:0_17:0_18:1] (ion (formula + adduct): [C52H98O6+NH4] 1+) | 315.3 | – | –
21 | CCCCCCCCCCCCCCCCCCCC(=O)OC[C@@H](COC(=O)CCCCCCCCCCCCC)OC(=O)CCCCCCCCCCCCCCCCC [TG 14:0_18:0_20:0] (ion (formula + adduct): [C55H106O6+NH4] 1+) | – | 326.4 | 326.1
22 | CC/C=C\C/C=C\C/C=C\C/C=C\C/C=C\CCCC(=O)OC[C@@H](COC(=O)CCCCCCCCCCCCC)OC(=O)CCCCCCC/C=C\C/C=C\CCCCC [TG 14:0_18:2_20:5] (ion (formula + adduct): [C55H92O6+NH4] 1+) | 312.4 | – | –
23 | CCCCCCCCCCCCCCCC(=O)OC[C@@H](COC(=O)CCCCCCCCCCCCCC)OC(=O)CCCCCCCCCCCCCC [TG 15:0_15:0_16:0] (ion (formula + adduct): [C49H94O6+NH4] 1+) | – | 308 | –
24 | CCCCCC/C=C\CCCCCCCC(=O)OC[C@@H](COC(=O)CCCCCCCCCCCCCC)OC(=O)CCCCCCCCCCCCCC [TG 15:0_15:0_16:1] (ion (formula + adduct): [C49H92O6+NH4] 1+) | – | 305.9 | –
25 | CCCCC/C=C\CCCCCCCC(=O)O[C@H](COC(=O)CCCCCCCCCCCCCC)COC(=O)CCCCCCCCCCCCCCC [TG 15:0_15:1_16:0] (ion (formula + adduct): [C49H92O6+NH4] 1+) | 305.9 | – | –
26 | CCCCCCCCCCCCCCCC(=O)OC[C@@H](COC(=O)CCCCCCCCCCCCCC)OC(=O)CCCCCCCCCCCCCCC [TG 15:0_16:0_16:0] (ion (formula + adduct): [C50H96O6+NH4] 1+) | – | 311.5 | 311.3 ± 0.14
27 | CCCCCC/C=C\CCCCCCCC(=O)OC[C@@H](COC(=O)CCCCCCCCCCCCCC)OC(=O)CCCCCCCCCCCCCCC [TG 15:0_16:0_16:1] (ion (formula + adduct): [C50H94O6+NH4] 1+) | 309.02 ± 0.29 | – | 309.2
28 | CCCCCCCCCCCCCCCCC(=O)OC[C@@H](COC(=O)CCCCCCCCCCCCCC)OC(=O)CCCCCCCCCCCCCCC [TG 15:0_16:0_17:0] (ion (formula + adduct): [C51H98O6+NH4] 1+) | – | 314.3 | 314.6 ± 0.22
29 | CCCCCCC/C=C\CCCCCCCC(=O)OC[C@@H](COC(=O)CCCCCCCCCCCCCC)OC(=O)CCCCCCCCCCCCCCC [TG 15:0_16:0_17:1] (ion (formula + adduct): [C51H96O6+NH4] 1+) | 311.4 | – | –
30 | CCCCCCCCCCCCCCCCCC(=O)OC[C@@H](COC(=O)CCCCCCCCCCCCCC)OC(=O)CCCCCCCCCCCCCCC [TG 15:0_16:0_18:0] (ion (formula + adduct): [C52H100O6+NH4] 1+) | – | – | 317.33 ± 0.31
31 | CCCCCCCC/C=C\CCCCCCCC(=O)OC[C@@H](COC(=O)CCCCCCCCCCCCCC)OC(=O)CCCCCCCCCCCCCCC [TG 15:0_16:0_18:1] (ion (formula + adduct): [C52H98O6+NH4] 1+) | – | 315.2 | 315.47 ± 0.058
32 | CCCCC/C=C\C/C=C\CCCCCCCC(=O)OC[C@@H](COC(=O)CCCCCCCCCCCCCC)OC(=O)CCCCCCCCCCCCCCC [TG 15:0_16:0_18:2] (ion (formula + adduct): [C52H96O6+NH4] 1+) | 312.6 | – | –
33 | CCCCCCCCCCCCCCCCCCCCCC(=O)OC[C@@H](COC(=O)CCCCCCCCCCCCCC)OC(=O)CCCCCCCCCCCCCCC [TG 15:0_16:0_22:0] (ion (formula + adduct): [C56H108O6+NH4] 1+) | – | – | 328.3
34 | CCCCCC/C=C\CCCCCCCC(=O)O[C@H](COC(=O)CCCCCCCCCCCCCC)COC(=O)CCCCCCCCCCCCCCCC [TG 15:0_16:1_17:0] (ion (formula + adduct): [C51H96O6+NH4] 1+) | 312.5 | – | –

— the supplement of paper PMC6965134
